Assay results taken from paper PMC4076079, “Selective inhibitors of a PAF biosynthetic enzyme lysophosphatidylcholine acyltransferase 2” (Journal of Lipid Research, 2014).
Several values for one entry are separate records, joined by “and”; a condition that tells them apart may be missing. Equal entries are not always repeated.

How the values were obtained:
Type in all cases: biochemical
hLPCAT1 [1] = molecular target: T1, hLPCAT1 (Homo sapiens, UniProt Q8NF37); test: lyso-PAFAT (acetyltransferase) activity assay, PAF product by LC-MS/MS; conditions: 0, 0.2, 0.6, 2, 6 and 20 μM of each compound in triplicate; LC-MS/MS; read-out: IC50, product PAF, enzyme hLPCAT1
T1 construct: expressed in transfected cells
T1 sequence (Q8NF37 1-534): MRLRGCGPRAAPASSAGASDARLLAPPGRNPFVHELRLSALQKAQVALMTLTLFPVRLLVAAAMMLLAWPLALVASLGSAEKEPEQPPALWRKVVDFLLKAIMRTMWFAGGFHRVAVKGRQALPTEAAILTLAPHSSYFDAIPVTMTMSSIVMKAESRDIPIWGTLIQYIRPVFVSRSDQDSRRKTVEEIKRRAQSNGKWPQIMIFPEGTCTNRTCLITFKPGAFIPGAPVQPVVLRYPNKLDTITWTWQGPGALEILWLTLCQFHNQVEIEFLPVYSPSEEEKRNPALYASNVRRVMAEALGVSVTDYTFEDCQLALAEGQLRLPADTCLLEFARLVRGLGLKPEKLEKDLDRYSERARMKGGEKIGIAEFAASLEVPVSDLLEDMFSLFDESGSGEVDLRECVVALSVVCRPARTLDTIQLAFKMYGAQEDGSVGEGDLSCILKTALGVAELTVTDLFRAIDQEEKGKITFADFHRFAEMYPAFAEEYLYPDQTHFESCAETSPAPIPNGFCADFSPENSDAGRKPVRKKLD
Protocol: (§1) Microsomal protein fractions (0.5 μg) supplemented with the indicated compound concentrations were added to the reaction mixture containing 100 mM Tris-HCl (pH 7.4), 1 μM CaCl2, 0.015% Tween-20, and two substrates. For acetyltransferase activity, the substrates were 1 mM acetyl-CoA and 5 μM d4-lyso-PAF; for the acyltransferase activity of LPCAT1 or LPCAT2, the substrates were, respectively, palmitoyl-CoA and d31-16:0 LPC or arachidonoyl-CoA and d4-lyso-PAF (all 5 μM). Each lysophospholipid contained fatty acid at the sn-1 position. After incubation at 37°C for 5 min, the reactions were stopped by adding 300 μl methanol containing 17:0 LPC or 14:0/14:0 PC as an internal standard. Deuterium-labeled products were analyzed by LC-MS/MS (Waters, Milford, MA and Thermo Scientific, Waltham, MA). […]
(§2) Steps 2 to 5 screening: 96-well plate assay
(§3) Acetyltransferase and acyltransferase assays were developed in 96-well plates. The microsomal hLPCAT2, obtained from mcPAF-stimulated CHO-S-PAFR cells was used in steps 1, 2, and 5. The microsomal hLPCAT1 obtained from unstimulated CHO-S cells was used in steps 3 to 5. Each well of the 96-well plates contained 30 µl of 15 µg/ml protein, 600 nl of 2 mM compound, 30 µl buffer C, and two substrates (Fig. 1B and C).
(§4) Substrate concentrations were as follows: acetyl-CoA, 250 or 1000 µM acetyl-CoA; […]
(§5) arachidonoyl-CoA, 5 µM; palmitoyl-CoA, 5 µM; d4-lyso-PAF, 5 µM; and d31-LPC, 5 µM.
(§6) For step 5, compound concentrations were 0, 0.167, 0.67, 2, 6.7, and 20 µM. The deuterium-labeled products were measured by LC-MS/MS. Percentage inhibition (steps 2 to 4) or IC50 (step 5) was used as the hit criterion. […]
(§7) Step 7 screening: species-specific differences
(§8) To evaluate the effects on the activity of mouse or human LPCAT1 and LPCAT2, each microsomal fraction was obtained using CHO-S-PAFR cells with or without mcPAF (200 nM) stimulation for 5 min. Acetyltransferase and acyltransferase assays were performed with 20 µM of each compound. Percentage inhibition was calculated in each

hLPCAT2 [2] = molecular target: T2, hLPCAT2 (Homo sapiens, UniProt Q7L5N7); test: acyltransferase activity assay, 16:0/20:4 alkyl-PC product by LC-MS/MS; conditions: 0, 0.2, 0.6, 2, 6 and 20 μM of each compound in triplicate; LC-MS/MS; read-out: IC50, product Alkyl-PC (16:0/20:4 alkyl-PC), enzyme hLPCAT2
T2 construct: expressed in transfected cells; host or cells: CHO-S-PAFR cells (microsomal fraction), with or without mcPAF stimulation
T2 sequence (Q7L5N7 1-544): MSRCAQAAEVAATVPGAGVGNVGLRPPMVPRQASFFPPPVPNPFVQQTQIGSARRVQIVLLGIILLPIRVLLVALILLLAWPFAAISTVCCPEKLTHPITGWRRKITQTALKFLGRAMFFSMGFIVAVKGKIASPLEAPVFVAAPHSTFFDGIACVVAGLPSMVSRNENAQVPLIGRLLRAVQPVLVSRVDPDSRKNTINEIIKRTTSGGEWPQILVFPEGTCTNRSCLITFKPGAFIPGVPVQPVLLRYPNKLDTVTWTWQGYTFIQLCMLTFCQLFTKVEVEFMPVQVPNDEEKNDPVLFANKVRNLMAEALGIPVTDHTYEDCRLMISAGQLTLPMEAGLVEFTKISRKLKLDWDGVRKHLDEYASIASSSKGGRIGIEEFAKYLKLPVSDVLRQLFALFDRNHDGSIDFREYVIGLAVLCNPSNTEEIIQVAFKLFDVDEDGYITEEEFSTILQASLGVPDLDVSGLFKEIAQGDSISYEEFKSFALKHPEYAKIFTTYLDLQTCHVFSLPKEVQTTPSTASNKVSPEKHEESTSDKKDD
Protocol: as §1, §2, §3, §4, §5, §6, §7, §8

hLPCAT2 [3] = molecular target: T2, hLPCAT2; test: lyso-PAFAT (acetyltransferase) activity assay, PAF product by LC-MS/MS; conditions: 0, 0.2, 0.6, 2, 6 and 20 μM of each compound in triplicate; LC-MS/MS; read-out: IC50, product PAF, enzyme hLPCAT2
Protocol: as §1, §2, §3, §4, §5
For step 5, compound concentrations were 0, 0.167, 0.67, 2, 6.7, and 20 µM. The deuterium-labeled products were measured by LC-MS/MS. Percentage inhibition (steps 2 to 4) or IC50 (step 5) was used as the hit criterion.
Step 6 screening: BSA assay
The acetyltransferase assay was performed with 20 µM of each compound and microsomal hLPCAT2 from step 1. The assay mixture contained 0.4% BSA and two substrates for lyso-PAFAT activity: 1 mM acetyl-CoA and 5 µM d4-lyso-PAF. Percentage inhibition values were determined.
as §7, §8

hLPCAT1 [4] = molecular target: T1, hLPCAT1; test: acyltransferase activity assay, DPPC product by LC-MS/MS; conditions: 0, 0.2, 0.6, 2, 6 and 20 μM of each compound in triplicate; LC-MS/MS; read-out: IC50, product DPPC, enzyme hLPCAT1
Protocol: as §1, §2, §3, §4, §5, §6, §7, §8

Structure (SMILES) | IC50 (hLPCAT1 [1]) | IC50 (hLPCAT2 [2]) | IC50 (hLPCAT2 [3]) | IC50 (hLPCAT1 [4])
COc1ccc(N2C(=O)C(Cl)=C(Oc3ccccc3OC)C2=O)cc1 [TSI-05] | > 20 µM | 7.58 µM | > 20 µM | > 20 µM
CC(C)OC(=O)c1ccc(N2C(=O)C(Cl)=C(N3CCOCC3)C2=O)cc1 [TSI-06] | > 20 µM | > 20 µM | > 20 µM | > 20 µM
COC(=O)c1ccc(N2C(=O)C(Cl)=C(Nc3ccc(S(N)(=O)=O)cc3)C2=O)cc1 [TSI-08] | > 20 µM | > 20 µM | > 20 µM | > 20 µM

More lines, now with the values ahead:

IC50 (hLPCAT1 [1]) | IC50 (hLPCAT2 [2]) | IC50 (hLPCAT2 [3]) | IC50 (hLPCAT1 [4]) | Structure (SMILES)
1720 µM | 69.6 µM | 106 µM | 1850 µM | CCN1C(=O)C=CC1=O [N-ethylmaleimide (NEM), N-ethylmaleimide, reference compound]
9.38 µM | 17.1 µM | > 10 µM and 12.1 µM | > 20 µM | COc1ccc(Cl)cc1N1C(=O)C(Cl)=C(Cl)C1=O [TSI-03]
7.79 µM | > 20 µM | > 10 µM and 16.3 µM | > 20 µM | COc1ccc(Cl)cc1N1C(=O)C(Cl)=C(Nc2ccccc2O)C1=O [TSI-04]
10.1 µM | 11.6 µM | 3.5 µM | > 20 µM | COC(=O)c1ccc(N2C(=O)C(Cl)=C(Cl)C2=O)cc1 [TSI-09]
